# ChEMBL document CHEMBL1155424, “3D-QSAR and docking studies on transforming growth factor (TGF)-beta receptor 1 antagonists” (Bioorg Med Chem Lett, 2010)
# Target: T1, TGF-beta receptor type-1 (Homo sapiens) (UniProt P36897)
# T1 sequence (whole entry): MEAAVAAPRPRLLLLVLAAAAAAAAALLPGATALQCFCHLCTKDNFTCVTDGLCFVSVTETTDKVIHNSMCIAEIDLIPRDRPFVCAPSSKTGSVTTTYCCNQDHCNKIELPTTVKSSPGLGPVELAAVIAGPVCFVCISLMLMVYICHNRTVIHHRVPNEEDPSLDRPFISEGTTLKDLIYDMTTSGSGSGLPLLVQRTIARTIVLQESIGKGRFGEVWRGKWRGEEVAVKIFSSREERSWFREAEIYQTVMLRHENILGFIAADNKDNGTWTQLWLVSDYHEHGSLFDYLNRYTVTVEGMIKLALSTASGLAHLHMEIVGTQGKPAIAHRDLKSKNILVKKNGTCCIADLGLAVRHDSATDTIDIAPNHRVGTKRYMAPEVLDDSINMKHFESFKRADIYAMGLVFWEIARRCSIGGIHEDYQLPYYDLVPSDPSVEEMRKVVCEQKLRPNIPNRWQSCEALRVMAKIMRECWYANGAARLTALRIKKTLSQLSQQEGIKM
# Description: Antagonistic activity at TGFBR1
SMILES,logKi,logIC50
Cc1cccc(-c2[nH]c(CNc3cccc(C(N)=O)c3)nc2-c2ccc3nccnc3c2)n1,-2,–
CCc1cccc(-c2[nH]c(CNc3cccc(C#N)c3)nc2-c2ccc3nccnc3c2)n1,–,-0.924
CCc1cccc(-c2[nH]c(CNc3ccc(C#N)cc3)nc2-c2ccc3nccnc3c2)n1,-1.32,–
OCc1ccc(-c2nc(-c3ccccn3)c(-c3ccc4c(c3)OCO4)[nH]2)cc1,-0.585,–
CCc1cccc(-c2[nH]c(CNc3cccc(C(N)=O)c3)nc2-c2ccc3nccnc3c2)n1,–,-1.82
Cc1cccc(-c2[nH]c(CNc3ccc(C#N)cc3)nc2-c2ccc3nccnc3c2)n1,–,-1.38
Cc1cccc(-c2[nH]c(C(C)(C)C)nc2-c2ccc3c(c2)OCO3)n1,–,-1.33
Cc1cccc(-c2[nH]c(CNc3cccc(C#N)c3)nc2-c2ccc3nccnc3c2)n1,–,-1.92
Cc1cccc(-c2[nH]c(CNc3ccc(C#N)cc3)nc2-c2ccc3c(c2)OCO3)n1,–,-0.759
O=C(O)c1ccc(-c2nc(-c3ccc4c(c3)OCO4)c(-c3ccccn3)[nH]2)cc1,–,-0.77
N#Cc1ccc(-c2nc(-c3ccc4c(c3)OCO4)c(-c3ccccn3)[nH]2)cc1,–,0.47

# Next, values leading:
logKi,logIC50,SMILES
–,-0.443,CCc1cccc(-c2[nH]c(CNc3ccc(C#N)cc3)nc2-c2ccc3c(c2)OCO3)n1
–,-0.582,Cc1cccc(-c2[nH]c(CNc3ccc(C(N)=O)cc3)nc2-c2ccc3c(c2)OCO3)n1
–,-0.415,CCc1cccc(-c2[nH]c(CNc3ccc(C(N)=O)cc3)nc2-c2ccc3c(c2)OCO3)n1
–,-1.12,Cc1cccc(-c2[nH]c(CNc3ccc(C(N)=O)cc3)nc2-c2ccc3nccnc3c2)n1
–,-1.68,Cc1cccc(-c2[nH]c(CNc3cccc(C(N)=O)c3)nc2-c2ccc3c(c2)OCO3)n1
–,-1.34,Cc1cccc(-c2[nH]c(CNc3cccc(C#N)c3)nc2-c2ccc3c(c2)OCO3)n1
–,-1.34,CCc1cccc(-c2[nH]c(CNc3cccc(C(N)=O)c3)nc2-c2ccc3c(c2)OCO3)n1
–,-0.815,Cc1cccc(-c2[nH]c(NCc3ccc(C#N)cc3)nc2-c2ccc3c(c2)OCO3)n1
–,-1.14,CCc1cccc(-c2[nH]c(CNc3cccc(C#N)c3)nc2-c2ccc3c(c2)OCO3)n1
–,-1.62,Cc1cccc(-c2[nH]c(NCc3cccc(C#N)c3)nc2-c2ccc3c(c2)OCO3)n1

# Target: T2, TGF-beta receptor type-1 (Homo sapiens, UniProt P36897)
# T2 sequence (P36897 whole entry): T1 sequence (whole entry)
# Description: Antagonistic activity at TGFBR1
row,SMILES,IC50
1,Cc1cccc(-c2[nH]c(CNc3ccc(C#N)cc3)nc2-c2ccc3c(c2)OCO3)n1,0.171 µM
